The values below come from patent US20250011299A1, “PYRIDAZINYL AMINO DERIVATIVES AS ALK5 INHIBITORS” (CHIESI FARMACEUTICI S.P.A., priority 2021, published 2025).

The structures appear in SMILES notation. Where a name gives a salt, the structure may show the parent alone.

In this assay the target is T1, human ALK5 (Homo sapiens, UniProt P36897).
T1 construct: human ALK5 (recombinant TGF β1 N-term GST-tagged, 80-end); GST (N); purchased
T1 sequence (P36897 80-503 limits assumed): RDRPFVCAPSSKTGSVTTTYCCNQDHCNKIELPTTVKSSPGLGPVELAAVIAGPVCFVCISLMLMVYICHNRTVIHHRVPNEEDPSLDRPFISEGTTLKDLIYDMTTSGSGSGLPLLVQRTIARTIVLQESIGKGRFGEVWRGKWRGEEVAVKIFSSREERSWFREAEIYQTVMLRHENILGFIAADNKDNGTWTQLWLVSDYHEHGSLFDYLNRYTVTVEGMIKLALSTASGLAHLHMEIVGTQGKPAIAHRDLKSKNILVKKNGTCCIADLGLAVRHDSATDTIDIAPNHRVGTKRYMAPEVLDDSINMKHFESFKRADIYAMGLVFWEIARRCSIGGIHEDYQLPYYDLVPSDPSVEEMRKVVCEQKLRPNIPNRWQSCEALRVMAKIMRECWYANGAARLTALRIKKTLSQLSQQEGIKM
The assay can be described thus: ADP-GLO Kinases assay of ALK5 enzymatic activity. It is filed as biochemical. The following applies: purified recombinant human ALK5, TGFβ1 peptide substrate, pIC50 converted to pKi by Cheng-Prusoff, high ATP protocol (15 μM) for very potent compounds, 25° C. How it is done: The enzymatic activity of compounds of the present invention was monitored measuring the formation of ADP using the ADP-GLO Kinases assay. Following the incubation of the purified enzyme, a substrate and ATP, the produced ADP was converted into ATP, which in turn was converted into light by Ultra-Glo Luciferase. The luminescent signal positively correlated with ADP amount and kinase activity. […] Compound and ALK5 kinase were mixed and incubated for 15 mins. […] After an incubation of 120 min, the reaction was stopped, and ADP production detected with ADP-Glo kit according to manufacturer's indications. […] After an incubation of 60 min, the kinase reaction was stopped, and ADP production detected with ADP-Glo kit according to manufacturer's indications. All reaction and incubation steps were performed at 25° C. and the assays were performed in 384-well format and validated using a selection of reference compounds tested in 11-point concentration-response curve. […] Results were expressed as pIC50 (negative logarithm of IC50) and subsequently converted to pKi (negative logarithm of […]) using the Cheng-Prusoff equation. The higher the value of pKi, the greater the inhibition of ALK5 activity.
In general terms: ADP-Glo turns the ADP formed in a reaction into a luminescent signal.
For orientation: Ki means a measure of affinity in units of concentration, obtained from inhibition or displacement. Regarding `C[C@@H]1CN(CCC(=O)Nc2cc(Nc3cc(-c4cc(Cl)ccc4F)nnc3N(C)CC3(C)CCOC3=O)ncn2)C[C@H](C)N1` (single isomer, unassigned) [Example 198, N-(6-{[6-(5-chloro-2-fluorophenyl)-3-{methyl[(3-methyl-2-oxooxolan-3-yl)methyl]amino}pyridazin-4-yl]amino}pyrimidin-4-yl)-3-(3,5-dimethylpiperazin-1-yl)propanamide], the Ki is at most 0.1 nM. In the case of `COCCOc1nnc(-c2cc(Cl)ccc2F)cc1Nc1ccnc(N)c1` [Example 69, N4-[6-(5-chloro-2-fluorophenyl)-3-(2-methoxyethoxy)pyridazin-4-yl]pyridine-2,4-diamine] it was 0.398 to 3.16 nM; in that of `COCCOc1nnc(-c2cc(Cl)ccc2F)cc1Nc1ccnc(NC(=O)CCN2CCN(CC(F)(F)F)CC2)c1` [Example 33, N-(4-{[6-(5-chloro-2-fluorophenyl)-3-(2-methoxyethoxy)pyridazin-4-yl]amino}pyridin-2-yl)-3-[4-(2,2,2-trifluoroethyl)piperazin-1-yl]propanamide], at most 0.1 nM. As for `COCC1(CN(C)c2nnc(-c3cc(Cl)ccc3F)cc2Nc2ccnc(NC(=O)CCN3CCN(C)CC3)c2)CCOC1=O` (single isomer, unassigned) [Example 202, N-(4-{[6-(5-chloro-2-fluorophenyl)-3-({[3-(methoxymethyl)-2-oxooxolan-3-yl]methyl}(methyl)amino)pyridazin-4-yl]amino}pyridin-2-yl)-3-(4-methylpiperazin-1-yl)propanamide], the figure is 0.126 to 0.316 nM; as for `CN1CCN([C@H]2C[C@H](C(=O)Nc3cc(Nc4cc(-c5cc(Cl)ccc5F)nnc4N(C)C)ccn3)C2)CC1` (single isomer, unassigned) [Example 96, trans N-(4-{[6-(5-chloro-2-fluorophenyl)-3-(dimethylamino)pyridazin-4-yl]amino}pyridin-2-yl)-3-(4-methylpiperazin-1-yl)cyclobutane-1-carboxamide], at most 0.1 nM.

For the compound `CN1CCN([C@H]2C[C@@H](C(=O)Nc3cc(Nc4cc(-c5cc(Cl)ccc5F)nnc4OC4CCOC4)ccn3)C2)CC1` (single isomer, unassigned) [Example 111, N-(4-{[6-(5-chloro-2-fluorophenyl)-3-(oxolan-3-yloxy)pyridazin-4-yl]amino}pyridin-2-yl)-3-(4-methylpiperazin-1-yl)cyclobutane-1-carboxamide], the inhibition constant Ki is at most 0.1 nM. Turning to `CN1CCN([C@H]2C[C@H](C(=O)Nc3cc(Nc4cc(-c5cc(Cl)ccc5F)nnc4OC4CCOC4)ccn3)C2)CC1` (single isomer, unassigned) [Example 114, N-(4-{[6-(5-chloro-2-fluorophenyl)-3-(oxolan-3-yloxy)pyridazin-4-yl]amino}pyridin-2-yl)-3-(4-methylpiperazin-1-yl)cyclobutane-1-carboxamide], the Ki was 0.126 to 0.316 nM. As for `CN1CCN(CCC(=O)Nc2cc(Nc3cc(-c4cc(Cl)ccc4F)nnc3OCC3COC(=O)O3)ccn2)CC1` (centres unmarked) [Example 79, N-(4-{[6-(5-chloro-2-fluorophenyl)-3-[(2-oxo-1,3-dioxolan-4-yl)methoxy]pyridazin-4-yl]amino}pyridin-2-yl)-3-(4-methylpiperazin-1-yl)propanamide], the figure is at most 0.1 nM. In the case of `CN(C)CCOc1nnc(-c2cc(Cl)ccc2F)cc1Nc1ccnc2[nH]ccc12` [Example 41, 6-(5-chloro-2-fluorophenyl)-3-[2-(dimethylamino)ethoxy]-N-{1H-pyrrolo[2,3-b]pyridin-4-yl}pyridazin-4-amine] it was 0.398 to 3.16 nM; in that of `CN1C2CC1CN([C@H]1C[C@@H](C(=O)Nc3cc(Nc4cc(-c5cc(Cl)ccc5F)nnc4SCCO)ccn3)C1)C2` [Example 175, Cis N-(4-{[6-(5-chloro-2-fluorophenyl)-3-[(2-hydroxyethyl)sulfanyl]pyridazin-4-yl]amino}pyridin-2-yl)-3-{6-methyl-3,6-diazabicyclo[3.1.1]heptan-3-yl}cyclobutane-1-carboxamide], at most 0.1 nM. In the case of `CN1CCN(CCC(=O)Nc2cc(Nc3cc(-c4cc(Cl)ccc4F)nnc3N3CCO[C@@H](C(=O)O)C3)ccn2)CC1` (stereo in doubt) [Example 134, 4-[6-(5-chloro-2-fluorophenyl)-4-({2-[3-(4-methylpiperazin-1-yl)propanamido]pyridin-4-yl}amino)pyridazin-3-yl]morpholine-2-carboxylate lithium salt] it was 0.126 to 0.316 nM. Consider `CN1CCCN(CCC(=O)Nc2cc(Nc3cc(-c4cc(Cl)ccc4F)nnc3SCCO)ccn2)CC1` [Example 84, N-(4-{[6-(5-chloro-2-fluorophenyl)-3-[(2-hydroxyethyl)sulfanyl]pyridazin-4-yl]amino}pyridin-2-yl)-3-(4-methyl-1,4-diazepan-1-yl)propanamide], for which the inhibition constant Ki was at most 0.1 nM. In the case of `CN1CCN([C@H]2C[C@@H](C(=O)Nc3cc(Nc4cc(-c5cc(Cl)ccc5F)nnc4N(C)CC4(C)CCOC4=O)ccn3)C2)CC1` (single isomer, unassigned) [Example 135, Cis N-(4-{[6-(5-chloro-2-fluorophenyl)-3-{methyl[(3-methyl-2-oxooxolan-3-yl)methyl]amino}pyridazin-4-yl]amino}pyridin-2-yl)-3-(4-methylpiperazin-1-yl)cyclobutane-1-carboxamide] it was at most 0.1 nM; in that of `CN1CCN([C@@H]2CC[C@@H](C(=O)Nc3cc(Nc4cc(-c5cc(Cl)ccc5F)nnc4SCCO)ccn3)C2)CC1` (single isomer, unassigned; enantiomer 1) [Example 189, Trans Enantiomer 1 N-(4-{[6-(5-chloro-2-fluorophenyl)-3-[(2-hydroxyethyl)sulfanyl]pyridazin-4-yl]amino}pyridin-2-yl)-3-(4-methylpiperazin-1-yl)cyclopentane-1-carboxamide], at most 0.1 nM; in that of `CNc1nnc(-c2cc(Cl)ccc2F)cc1Nc1ccnc(NC(=O)CCN2CCN(C)CC2)c1` [Example 29], at most 0.1 nM. As to `COCCOc1nnc(-c2cc(Cl)ccc2F)cc1Nc1ccnc2cc(OCCN3CCN(C)CC3)ccc12` [Example 32, N-[6-(5-chloro-2-fluorophenyl)-3-(2-methoxyethoxy)pyridazin-4-yl]-7-[2-(4-methylpiperazin-1-yl)ethoxy]quinolin-4-amine], the Ki is at most 0.1 nM. Consider `COc1nnc(-c2cc(Cl)ccc2F)cc1Nc1ccnc2cc(OCCN3CCN(C)CC3)ccc12` [Example 46, N-[6-(5-chloro-2-fluorophenyl)-3-methoxypyridazin-4-yl]-7-[2-(4-methylpiperazin-1-yl)ethoxy]quinolin-4-amine], for which the inhibition constant (Ki) was at most 0.1 nM. In the case of `CN1CCN(CCC(=O)Nc2cc(Nc3cc(-c4cc(Cl)ccc4F)nnc3OCc3ccc4c(c3)OC(C)(C)O4)ccn2)CC1` [Example 116, N-(4-{[6-(5-chloro-2-fluorophenyl)-3-[(2,2-dimethyl-2H-1,3-benzodioxol-5-yl)methoxy]pyridazin-4-yl]amino}pyridin-2-yl)-3-(4-methylpiperazin-1-yl)propanamide] it was 0.126 to 0.316 nM. In the case of `CN1CCN(CCC(=O)Nc2cc(Nc3cc(-c4cc(Cl)ccc4F)nnc3SC(C)(C)CO)ccn2)CC1` [Example 93, N-(4-{[6-(5-chloro-2-fluorophenyl)-3-[(1-hydroxy-2-methylpropan-2-yl)sulfanyl]pyridazin-4-yl]amino}pyridin-2-yl)-3-(4-methylpiperazin-1-yl)propanamide] it was 0.126 to 0.316 nM; in that of `CN1C[C@@H]2C[C@H]1CN2CC(=O)Nc1cc(Nc2cc(-c3cc(Cl)ccc3F)nnc2OC[C@H]2C[C@@H](O)C2)ccn1` [Example 122, N-(4-{[6-(5-chloro-2-fluorophenyl)-3-[(3-hydroxycyclobutyl)methoxy]pyridazin-4-yl]amino}pyridin-2-yl)-2-[(1S,4S)-5-methyl-2,5-diazabicyclo[2.2.1]heptan-2-yl]acetamide], at most 0.1 nM; in that of `Nc1cc(Nc2cc(-c3cc(Cl)ccc3F)nnc2OCCO)ccn1` [Example 43, 2-({4-[(2-aminopyridin-4-yl)amino]-6-(5-chloro-2-fluorophenyl)pyridazin-3-yl}oxy)ethan-1-ol], 0.398 to 3.16 nM. As for `CN1CCN(CCC(=O)Nc2cc(Nc3cc(-c4cc(Cl)ccc4F)nnc3N(C)C[C@@]3(C)CCOC3=O)ccn2)CC1` (racemic) [Example 127, N-(4-{[6-(5-chloro-2-fluorophenyl)-3-{methyl[(3-methyl-2-oxooxolan-3-yl)methyl]amino}pyridazin-4-yl]amino}pyridin-2-yl)-3-(4-methylpiperazin-1-yl)propanamide], the figure is at most 0.1 nM.

In the case of `CN1CCN(CCC(=O)Nc2cc(Nc3cc(-c4cc(Cl)ccc4F)nnc3S(C)(=O)=O)ccn2)CC1` [Example 18, N-(4-{[6-(5-chloro-2-fluorophenyl)-3-methanesulfonylpyridazin-4-yl]amino}pyridin-2-yl)-3-(4-methylpiperazin-1-yl)propanamide], the inhibition constant (Ki) is 0.126 to 0.316 nM.
